Read-outs that look alike come from different tables or passages of the source.
Assays:
[1] = Octanol-water partition, shake flask (log Papp); type: physicochemical; conditions: pH 7.4, Tris buffer
Experimental: The partition values between octanol and water (at pH 7.4, Tris buffer) were determined using a “shake flask” direct method of measuring log Papp values (Sangster et al., Octanol-Water Partition Coefficients: Fundamentals and Physical Chemistry; John Wiley and Sons: West Sussex, England, 1997; Vol. 2). The fraction of compound in the octanol is then expressed as log Papp. […] This is likely due to the presence of the aromatic nitrogen, a moderately good hydrogen bond accepter, on the DFT analogs.

[2] = test system: urinary Kim-1 excretion; conditions: cited from earlier work; for urinary Kim-1: 237 μmol/kg twice daily
[3] = administered twice daily; cited from earlier work
[4] = Compound-plasma binding, rodent plasma; type: in vitro ADME; conditions: 37° C., 4 h, 3,000 MWCO filter
Excerpt: (§1) Each sample was then passed through a Millipore Amicon Ultra regenerated cellulose filter (3,000 MWCO).

[5] = Compound-plasma binding, primate plasma; type: in vitro ADME; conditions: 37° C., 4 h, 3,000 MWCO filter
Excerpt: as §1

[6] = test system: urinary Kim-1 excretion
Experimental: The compounds were administered to the rats po as their monosodium salts, prepared as described above, twice daily at a dose of 237 μmol/kg/dose (474 μmol/kg/d) for up to 7 d. The studies were performed on rats with normal iron stores. The rats were fasted overnight and were given the first dose of the compound first thing in the morning. The rats were fed ˜3 h post-dose and had access to food for ˜5 h before being fasted overnight.
The rats were housed in individual metabolic cages. […] A baseline (day 0) urine sample was collected and assessed for its Kim-1 content; each animal served as its own control. The urine was collected chilled as previously described (Bergeron et al., “Desferrithiocin Analog Iron Chelators: Iron Clearing Efficiency, Tissue Distribution, and Renal Toxicity.” Biometals, 2011, 24, 239-258).
The chilled urine was collected, vortexed, and warmed to room temperature; any sediment in the samples was allowed to settle. Kim-1 content was assessed using a Rat Kim-1 Rapid Test Kit according to the manufacturer's instructions. The result was read using a ReaScan Test Reader. […] Data are presented as the mean±the standard error of the mean; p-values were generated via a one-tailed Student's t-test in which the inequality of variances was assumed; and a p-value of <0.05 was considered significant.
Assessment of chelator-induced impaired renal function has traditionally relied on the detection of a rise in blood urea nitrogen (BUN) and/or serum creatinine (SCr). However, because of the functional reserve of the kidney, these parameters are often unreliable indicators of acute kidney injury; the ultimate answer requires histopathology. […] BioAssay Works has recently developed RenaStick, a direct lateral flow immunochromato-graphic assay, which allows for the rapid detection (less than 30 minutes) and quantitation of urinary Kim-1 (rat) or KIM-1 (human) excretion (Vaidya et al., “A Rapid Urine Test for Early Detection of Kidney Injury.” Kidney. Int. 2009, 76, 108-114). […] The studies were performed on rats with normal iron stores; each animal served as their own control.

[7] = Job's plot stoichiometry of Fe(III) complexes; type: binding; conditions: [DFT analog]+[Fe(III)]=1.0 mM, Tris-HCl pH 7.4; theoretical 0.667 for 2:1
Experimental: Solutions containing DFT analog/Fe(III) at different ratios were prepared such that [DFT analog]+[Fe(III)]=1.0 mM in Tris-HCl buffer at pH 7.4. The theoretical mole fraction maximum for a 2:1 DFT analog:Fe complex is 0.667 (indicated by an arrow).
In each instance, the DFT analogs formed 2:1 complexes with Fe(III). […] A 100 mM Tris HCl buffer was used to maintain the pH at 7.4. Solutions containing different DFT analog/Fe(III) ratios were prepared by mixing appropriate volumes of 1.0 mM DFT analog solution and 1.0 mM Fe(III)-nitriloacetate (NTA) in Tris-HCl buffer. The 1.0 mM Fe(III)-NTA solution was prepared immediately prior to use by dilution of a 41.6 mM Fe(III)-NTA stock solution with the Tris HCl buffer, whereas the DFT analog stock solution was prepared by dissolving the DFT analog as its monosodium salt in Tris HCl buffer at pH 7.4. The Fe(III)-NTA stock solution was prepared by mixing equal volumes of […] of FeCl3 and 180 mM trisodium NTA. The iron content of the Fe(III)-NTA solution was verified by atomic absorption spectrophotometry (AAS).

[8] = day 8, after 237 μmol/kg twice daily × 7 d
[9] = po twice daily 237 μmol/kg/dose × 7 d

SMILES	LogPapp [1]	urinary Kim-1 ([2]; after three days)	BUN [2, 8]	SCr [2, 8]	urinary Kim-1 ([2]; end of the 7 d dosing period)	renal toxicity (Kim-1, BUN, SCr), summary ([2]; rats)	nephrotoxicity in patients [3]	binding of the compound to plasma [4]	binding of the compound to plasma [5]	survival of dosing period ([6]; po twice daily 237 μmol/kg/dose (474 μmol/kg/d), up to 7 d, rats with normal iron stores)	BUN and SCr [6, 9]	urinary Kim-1 excretion versus baseline (day 0) [6, 9]	renal toxicity (Kim-1, BUN, SCr), summary ([6]; rat, in vivo)	observed mole fraction maximum in Job's plot [7]
C[C@]1(C(=O)O)CSC(c2ccc(O)cc2O)=N1 [compound 3]	−1.05	69±47 ng/kg/24 h	32 ± 13 mg/dL	1.3 ± 1.0 mg/dL	189±187 ng/kg/24 h	some nephrotoxicity	induced proximal tubule nephrotoxicity							
COCCOCCOc1ccnc(C2=N[C@@](C)(C(=O)O)CS2)c1O [I-3, (S)-4,5-Dihydro-2-[3-hydroxy-4-(3,6-dioxaheptyloxy)-2-pyridinyl]-4-methyl-4-thiazolecarboxylic Acid]	−1.38							little, if any, binding	little, if any, binding	All of the animals survived the compound dosing regimen	well within the normal range	remained within error of that of the baseline (day 0) levels	little to no impact on renal function	0.677
